Article PMC3495945, “Org 214007-0: A Novel Non-Steroidal Selective Glucocorticoid Receptor Modulator with Full Anti-Inflammatory Properties and Improved Therapeutic Index” (PLoS ONE, 2012)
Blank lines part the entries; values can stand above or below the compound they belong to.

Assays:
[1] = molecular target: His-GR-LBD (F602S mutated); assay: AlphaScreen or HTRF; co-factor peptide recruitment assay (Eu/APC fluorescence); 10 nM His-GR-LBD (F602S) pre-incubated 3 h at 4°C with Org 214007-0 (0.032 nM to 10 μM), then 100 nM TIF2-3 peptide, 8 nM streptavidin-APC and 1.25 nM anti-His-Eu, 20 h at 4°C
LPS-induced TNFα release = assay: LPS-induced TNFα acute inflammation mouse model; type: in vivo; conditions: RU486 50 mg/kg s.c. 30 minutes before oral compound dosing
Experimental: For both the LPS-induced TNFα as well as the anti-CD3 induced IL-2 model, female Balb/c mice of 8–12 week old were used. Mice were treated orally with 0.2 ml compound or vehicle (water/mannitol (5%) with 5% DMSO/5% chremophore for the LPS model or with 0.5% gelatine for the anti-CD3 model). One hour after oral treatment animals were challenged i.p. with 0.2 ml of either 20 μg/mouse LPS (Sigma, E. coli serotype 055:B5) or 5 µg/mouse hamster anti-CD3 monoclonal (BD Biosciences Pharmingen, art. nr. 553057, clone 145-2C11). Ninety minutes after LPS injection or 3 hours after anti-CD3 challenge, blood samples were collected and serum levels of TNFα or IL-2 were determined via specific ELISAs (BD Biosciences Pharmingen, San Diego, CA, USA). In the experiment that included treatment with RU486 to block GR, mice were dosed subcutaneously with 50 mg/kg RU486 30 minutes before the oral compound dosing. ED50 and % efficacy (maximal percentage inhibition of TNFα or IL-2 release) are determined using a 3 parameter sigmoidal curve calculation. Statistical analysis of the results was performed using an one-way ANOVA (log) test.

[2] = system: endometrium in estrogen-primed immature rabbits; assay: anti-McPhail test (antagonistic, anti-progestational activity); type: in vivo, rabbit; conditions: 0-4 scale; 7 days with progesterone; RU486 4 mg/kg/day, Org 214007-0 0.5 mg/kg/day oral; n=2
Experimental: For the anti-McPhail test, the estrogen-primed rabbits were subsequently treated for 7 days with inducer progesterone (0.25 mg/kg/day s.c.) in combination with an oral treatment of either placebo, reference RU486 (4 mg/kg/day) or Org 214007-0 (0.5 mg/kg/day). The uterus preparation and evaluation of the endometrium was performed as described above.
For the antagonistic test, after oestrogen priming, rabbits were treated for 7 days with progesterone and placebo, reference RU486 or Org 214007-0. One day after the last treatment the uterus was dissected and endometrial development was scored on a 0-4 scale. […] After treatment with Org 214007-0 no reduction of the endometrial transformation was observed (score 3.31), indicative for no anti-progestagenic activity

[3] = system: endometrium in estrogen-primed immature rabbits; assay: McPhail test (agonistic, progestational activity); type: in vivo, rabbit; conditions: 0-4 scale; 5 days; MPA 0.05 mg/kg/day, Org 214007-0 0.5 mg/kg/day; n=2
Experimental: The McPhail (or anti-McPhail) test was used to evaluate potential progestational (or anti-progestational) activity of Org 214007-0 on the endometrium in estrogen-primed immature rabbits after once-daily administration. The female NZW rabbits were housed in pairs in a light- and temperature-controlled room, fed daily with 40 - 50 g standard pelleted food and with free access to tap-water. Before treatment with compounds rabbits were primed daily in the morning with a subcutaneous dose of 2 μg estradiol benzoate for 8 days. […] Transverse sections were prepared, stained with haematoxylin-eosin and evaluated microscopically. Endometrial development was scored on a 0-4 scale as follows: score 0: no development of glands; score 1: start of development of glands; score 2: clear-cut development of glands with ducts beginning to branch; score 3: about 2/3 of stroma bearing glandual tissue; score 4: more than 2/3 of stroma bearing glandular tissue. A score of 2 or higher in both rabbits was evaluated as a positive resonse.
For both the agonistic and antagonistic test immature female NZW rabbits (n=2 per treatment group) were primed with estrogen. […] One day after the last treatment the uterus was dissected and endometrial development was scored on a 0-4 scale. […]

percentage maximal efficacy of peptide recruitment with Org 214007-0, relative to prednisolone (100%) [1]: 67%
Compound: peptide representing Transcriptional Intermediary Factor 2 - LXXLL motif 3 (TIF2-3)

Compound: CC#C[C@]1(O)CC[C@H]2[C@@H]3CCC4=CC(=O)CCC4=C3[C@@H](c3ccc(N(C)C)cc3)C[C@@]21C [RU486, mifepristone, reference compound]
effect of RU486 on inhibition of TNFα by Org 214007-0 or prednisolone (LPS-induced TNFα release): fully antagonized | endometrial development score, antagonistic test [2]: 0.5

Compound: CC(=O)O[C@]1(C(C)=O)CC[C@H]2[C@@H]3C[C@H](C)C4=CC(=O)CC[C@]4(C)[C@H]3CC[C@@]21C [MPA, medroxyprogesterone acetate, reference compound]
endometrial development score, agonistic test [3]: 2.5
